Columns and labels:
[1] = target: T1, TLR7 (Homo sapiens, UniProt Q9NYK1); assay: NFκB-luciferase reporter assay in HEK293 cells transfected with human TLR7 (HEK293-TLR7); format: cell-based; set-up: expressed in transfected cells; host or cells: HEK293 (ATCC CRL-1573), pIRES vector, G-418 selected; conditions: HEK293-TLR7, 10 μM IRM, 16 hours
T1 sequence (Q9NYK1 27-1049): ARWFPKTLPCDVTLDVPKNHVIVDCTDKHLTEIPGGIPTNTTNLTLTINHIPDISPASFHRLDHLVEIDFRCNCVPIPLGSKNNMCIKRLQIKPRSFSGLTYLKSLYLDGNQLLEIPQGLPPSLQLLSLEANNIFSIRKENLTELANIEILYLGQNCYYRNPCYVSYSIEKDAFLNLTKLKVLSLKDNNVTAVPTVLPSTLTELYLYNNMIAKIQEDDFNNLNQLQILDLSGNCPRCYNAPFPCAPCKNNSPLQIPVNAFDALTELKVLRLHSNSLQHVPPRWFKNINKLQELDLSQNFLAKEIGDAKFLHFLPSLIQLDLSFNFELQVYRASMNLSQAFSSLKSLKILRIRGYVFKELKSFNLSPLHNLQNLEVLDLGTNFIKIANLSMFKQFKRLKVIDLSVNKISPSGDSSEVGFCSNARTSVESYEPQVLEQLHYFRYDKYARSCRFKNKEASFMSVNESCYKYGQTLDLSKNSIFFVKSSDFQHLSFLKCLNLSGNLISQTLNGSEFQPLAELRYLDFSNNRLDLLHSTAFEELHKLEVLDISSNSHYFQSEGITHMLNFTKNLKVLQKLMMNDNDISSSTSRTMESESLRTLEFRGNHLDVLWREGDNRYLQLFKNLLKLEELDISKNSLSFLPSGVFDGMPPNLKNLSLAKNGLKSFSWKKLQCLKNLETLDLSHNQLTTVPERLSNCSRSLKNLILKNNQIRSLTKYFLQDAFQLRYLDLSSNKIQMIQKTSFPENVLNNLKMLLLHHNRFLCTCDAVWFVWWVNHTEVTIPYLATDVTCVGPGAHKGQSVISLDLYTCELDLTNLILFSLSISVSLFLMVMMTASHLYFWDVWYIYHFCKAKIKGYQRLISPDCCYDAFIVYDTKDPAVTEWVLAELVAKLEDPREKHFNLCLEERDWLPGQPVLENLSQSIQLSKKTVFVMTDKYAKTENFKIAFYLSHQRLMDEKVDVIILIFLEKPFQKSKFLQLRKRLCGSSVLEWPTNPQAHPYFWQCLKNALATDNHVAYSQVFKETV
Experimental: (§1) A compound was identified as increasing cellular activity mediated through a given TLR if it induced at least a two-fold increase in NFκB-induced luciferase signal compared to the control.
(§2) HEK293 medium was prepared from 90% Minimum Essential Medium (MEM) with 2 mM L-glutamine and Earle's Balanced Salt Solution (Invitrogen Corp., Rockville, Md.) adjusted to contain 1.5 g/L sodium bicarbonate, 0.1 mM non-essential amino acids, and 1.0 mM sodium pyruvate; 10% heat-inactivated fetal calf serum. HEK293 cells were cultured by incubating cells in HEK293 medium overnight at 37° C., 8% CO2.
(§3) The cells were co-transfected with (1) pIRES (BD Biosciences Clontech, Palo Alto, Calif.) either (a) unmodified (HEK293-vector), (b) containing an expressible human TLR7 gene (HEK293-TLR7), or (c) containing an expressible human TLR8 gene (HEK293-TLR8), and (2) NFκB-luc reporter (Stratagene, La Jolla, Calif.) in a 10:1 ratio with Fugene 6 transfection reagent (Roche Diagnostics Corp., Indianapolis, Ind.) following the manufacturer's instructions.
(§4) The cells were stimulated with 1 μL of IRM compounds at 1 mM in DMSO (final IRM concentration of 10 μM) or 1 μL DMSO as a control. The plates were then incubated an additional 16 hours at 37° C., 5% CO2. The luciferase signal was read using the LucLite kit (Packard Instrument Co., Meriden, Conn.). Luminescence was measured on an LMAX luminometer (Molecular Devices Corp., Sunnyvale, Calif.).

[2] = target: T2, human TLR8 (Homo sapiens, UniProt Q9NR97); assay: NFκB-luciferase reporter assay in HEK293 cells transfected with human TLR8 (HEK293-TLR8); format: cell-based; conditions: HEK293-TLR8, 10 μM IRM, 16 hours
T2 construct: expressed in transfected cells; host or cells: HEK293 (ATCC CRL-1573), pIRES vector, G-418 selected
T2 sequence (Q9NR97 27-1041): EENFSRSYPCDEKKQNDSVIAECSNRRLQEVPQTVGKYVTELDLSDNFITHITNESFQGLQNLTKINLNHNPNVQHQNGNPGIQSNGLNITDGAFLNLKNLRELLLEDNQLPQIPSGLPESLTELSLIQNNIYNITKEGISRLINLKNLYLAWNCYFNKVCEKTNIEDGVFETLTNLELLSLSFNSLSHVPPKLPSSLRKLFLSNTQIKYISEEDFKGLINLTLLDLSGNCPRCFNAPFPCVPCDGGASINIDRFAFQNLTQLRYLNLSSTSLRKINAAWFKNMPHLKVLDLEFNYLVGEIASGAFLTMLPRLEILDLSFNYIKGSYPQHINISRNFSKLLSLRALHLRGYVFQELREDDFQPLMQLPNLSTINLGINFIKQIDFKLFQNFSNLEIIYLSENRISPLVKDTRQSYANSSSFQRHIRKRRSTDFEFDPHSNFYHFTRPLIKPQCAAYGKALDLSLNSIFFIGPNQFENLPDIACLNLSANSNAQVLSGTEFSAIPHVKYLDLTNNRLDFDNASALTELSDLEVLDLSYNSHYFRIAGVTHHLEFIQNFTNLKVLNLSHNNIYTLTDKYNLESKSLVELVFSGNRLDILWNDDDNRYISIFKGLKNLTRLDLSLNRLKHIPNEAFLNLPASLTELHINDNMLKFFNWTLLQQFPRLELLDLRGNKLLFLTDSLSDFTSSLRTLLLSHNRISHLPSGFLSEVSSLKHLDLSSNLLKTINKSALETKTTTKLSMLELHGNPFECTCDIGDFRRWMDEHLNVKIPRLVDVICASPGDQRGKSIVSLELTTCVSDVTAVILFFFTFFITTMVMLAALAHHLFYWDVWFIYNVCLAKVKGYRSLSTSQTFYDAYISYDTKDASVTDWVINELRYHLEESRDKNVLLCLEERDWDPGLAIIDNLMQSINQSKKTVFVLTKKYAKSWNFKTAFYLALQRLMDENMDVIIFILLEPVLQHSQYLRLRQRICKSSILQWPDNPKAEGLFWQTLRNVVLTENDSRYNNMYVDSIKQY
Experimental: as §1, §2, §3, §4

Row | TLR7: fold increase of NFκB-induced luciferase signal compared to a DMSO control [1] | TLR8: fold increase of NFκB-induced luciferase signal compared to a DMSO control [2] | SMILES
1 | 4.98 fold increase | 1.06 fold increase | Cc1nc2c(N)nc3ccccc3c2n1CCOCc1ccccc1 [IRM4, 1-[2-(benzyloxy)ethyl]-2-methyl-1H-imidazo[4,5-c]quinolin-4-amine]
2 | 4.16 fold increase | 0.91 fold increase | Cc1nc2c(N)nc3ccccc3c2n1CCOCCCc1cccnc1 [IRM2, 2-methyl-1-[2-(3-pyridin-3-ylpropoxy)ethyl]-1H-imidazo[4,5-c]quinolin-4-amine]
3 | 4.22 fold increase | 6.04 fold increase | CCc1nc2c(N)nc3ccccc3c2n1CCCCS(=O)(=O)c1cc(Cl)cc(Cl)c1 [IRM20, 1-{4-[(3,5-dichlorophenyl)sulfonyl]butyl}-2-ethyl-1H-imidazo[4,5-c]quinolin-4-amine]
4 | 6.22 fold increase | 0.86 fold increase | COCCc1nc2c(N)nc3ccccc3c2n1CCCNS(=O)(=O)c1ccc(C)cc1 [IRM7, N-{3-[4-amino-2-(2-methoxyethyl)-1H-imidazo[4,5-c]quinolin-1-yl]propyl}-4-methylbenzenesulfonamide]
5 | 0.64 fold increase | 9.24 fold increase | CCCCc1nc2c(N)nc3cccnc3c2n1CCNC(=O)C(N)CC(C)C (stereo not drawn) [IRM10, N^1-[2-(4-amino-2-butyl-1H-imidazo[4,5-c][1,5]naphthyridin-1-yl)ethyl]-2-amino-4-methylpentanamide]
6 | 3.38 fold increase | 0.94 fold increase | COCCc1nc2c(N)nc3ccccc3c2n1CCCCCCCCNC(=O)Nc1ccccc1 [IRM5, N-{8-[4-amino-2-(2-methoxyethyl)-1H-imidazo[4,5-c]quinolin-1-yl]octyl}-N′-phenylurea]
7 | 0.86 fold increase | 6.25 fold increase | CCc1nc2c(N)nc3ccccc3c2n1CCOCCNC(=O)Nc1ccccc1 [IRM13, N-{2-[2-(4-amino-2-ethyl-1H-imidazo[4,5-c]quinolin-1-yl)ethoxy]ethyl}-N′-phenylurea]
8 | 1.16 fold increase | 8.84 fold increase | CCCCc1nc2c(N)nc3ccccc3c2n1CCNS(=O)(=O)CCC [IRM12, N^1-[2-(4-amino-2-butyl-1H-imidazo[4,5-c]quinolin-1-yl)ethyl]-1-propanesulfonamide]
9 | 5.06 fold increase | 2.77 fold increase | CCCCc1nc2c(N)nc(C)c(C)c2n1CC(C)(C)O [IRM18, 4-amino-2-butyl-α,α,6,7-tetramethyl-1H-imidazo[4,5-c]pyridine-1-ethanol]
10 | 1.44 fold increase | 10.69 fold increase | Nc1nc2ccccc2c2c1ncn2CCCCNC(=O)c1ccccc1Oc1ccccc1 [IRM11, N^1-[4-(4-amino-1H-imidazo[4,5-c]quinolin-1-yl)butyl]-2-phenoxybenzamide]
11 | 0.92 fold increase | 5.52 fold increase | CCOCc1nc2c(N)nc3ccccc3c2n1CCNC(=O)Nc1cccc(C#N)c1 [IRM15, N-{2-[4-amino-2-(ethoxymethyl)-1H-imidazo[4,5-c]quinolin-1-yl]ethyl}-N′-(3-cyanophenyl)urea]

Row | SMILES | TLR7: fold increase of NFκB-induced luciferase signal compared to a DMSO control [1] | TLR8: fold increase of NFκB-induced luciferase signal compared to a DMSO control [2]
12 | COCCc1nc2c(N)nc3ccccc3c2n1CC(C)(C)O [IRM17, 4-amino-α,α-dimethyl-2-methoxyethyl-1H-imidazo[4,5-c]quinoline-1-ethanol] | 2.53 fold increase | 10.18 fold increase
